Laboratory results taken from patent US20070213340A1, “Farnesyl protein transferase inhibitors” (priority 2006, published 2007).

molecular target: farnesyl protein transferase (Homo sapiens, UniProt P49354+P49356); experiment: FPT IC50 (inhibition of farnesyl protein transferase, in vitro enzyme assay); assay type: biochemical; details: procedure of WO 95/10516
Description: FPT IC50 (inhibition of farnesyl protein transferase, in vitro enzyme assay) was determined, and COS Cell IC50 (Cell-Based Assay) could be determined following the assay procedures described in WO 95/10516, published Apr. 20, 1995. GGPT IC50 (inhibition of geranylgeranyl protein transferase, in vitro enzyme assay), Cell Mat Assay, and anti-tumor activity (in vivo anti-tumor studies) could be determined by the assay procedures described in WO 95/10516. The disclosure of WO 95/10516 is incorporated herein by reference thereto.

| Compound | IC50 [nM] |
| --- | --- |
| CCOC(=O)CCCNC(=O)[C@H]1CN(C(=O)OC(C)(C)C)CCN1C1c2ccc(Cl)cc2CCc2cccnc21 (single isomer, unassigned) [compound 6, 4-(8-Chloro-6,11-dihydro-5H-benzo[5,6]cyclohepta[1,2-b]pyridin-11-yl)-3R-(3-ethoxycarbonyl-propylcarbamoyl)-piperazine-1-carboxylic acid tert-butyl ester] | 5.2 |
| CCOC(=O)CCCNC(=O)[C@H]1CN(C(=O)OC(C)(C)C)CCN1C1c2ccc(Cl)cc2CCc2cccnc21 (single isomer, unassigned) [compound 7, 4-(8-Chloro-6,11-dihydro-5H-benzo[5,6]cyclohepta[1,2-b]pyridin-11-yl)-3R-(3-ethoxycarbonyl-propylcarbamoyl)-piperazine-1-carboxylic acid tert-butyl ester] | 5.5 |
| CC(C)(C)OC(=O)N1CCN(C2c3ccc(Cl)cc3CCc3cccnc32)[C@@H](C(=O)NCCCC(=O)O)C1 (single isomer, unassigned) [compound 8, 3R-(3-Carboxy-propylcarbamoyl)-4-(8-chloro-6,11-dihydro-5H-benzo[5,6]cyclohepta[1,2-b]pyridin-11-yl)-piperazine-1-carboxylic acid tert-butyl ester] | 5.5 |
| CC(C)(C)OC(=O)N1CCN(C2c3ccc(Cl)cc3CCc3cccnc32)[C@@H](C(=O)NCCCC(=O)O)C1 (single isomer, unassigned) [compound 9, 3R-(3-Carboxy-propylcarbamoyl)-4-(8-chloro-6,11-dihydro-5H-benzo[5,6]cyclohepta[1,2-b]pyridin-11-yl)-piperazine-1-carboxylic acid tert-butyl ester] | 6.3 |
| CC(C)(C)OC(=O)N1CCN(C2c3ccc(Cl)cc3CCc3cccnc32)[C@@H](C(=O)NCCCn2ccnc2)C1 (stereo partly drawn) [Compound 12, 4-(8-Chloro-6,11-dihydro-5H-benzo[5,6]cyclohepta[1,2-b]pyridin-11-yl)-3R-(3-imidazol-1-yl-propylcarbamoyl)-piperazine-1-carboxylic acid tert-butyl ester] | 1.2 |
